From article PMC8550792, “Evolution of kinase polypharmacology across HSP90 drug discovery” (Cell Chemical Biology, 2021) come the findings set out here.

What all share (assay): biochemical
What all share (assay type): biochemical

In test [1] the target is T1, 382 unique human kinases (Homo sapiens, UniProt P22607, K650Q).
T1 construct: purchased Reaction Biology (HotSpot contract assay)
To be noted: kinase FGFR3 (K650Q), compound 10 uM; for remaining activity at 10 µM: read-out: % Enzyme Activity (relative to DMSO controls).

In test [2] the target is T2, 382 unique human kinases (Homo sapiens, UniProt Q9BXA6).
T2 construct: purchased Reaction Biology (HotSpot contract assay)
T2 sequence (Q9BXA6 whole entry): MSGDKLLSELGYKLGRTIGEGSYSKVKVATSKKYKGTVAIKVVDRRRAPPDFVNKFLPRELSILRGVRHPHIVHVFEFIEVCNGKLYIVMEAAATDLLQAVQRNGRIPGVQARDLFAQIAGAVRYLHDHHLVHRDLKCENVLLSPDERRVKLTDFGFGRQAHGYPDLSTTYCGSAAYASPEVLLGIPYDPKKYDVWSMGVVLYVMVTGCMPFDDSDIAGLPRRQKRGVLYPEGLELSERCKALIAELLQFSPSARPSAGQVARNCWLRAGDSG
To be noted: kinase SSTK/TSSK6, compound 10 uM; for remaining activity at 10 µM: read-out: % Enzyme Activity (relative to DMSO controls).

Test [3] has as its target T3, 382 unique human kinases (Homo sapiens, UniProt Q9UHD2).
T3 construct: purchased Reaction Biology (HotSpot contract assay)
T3 sequence (Q9UHD2 1-729): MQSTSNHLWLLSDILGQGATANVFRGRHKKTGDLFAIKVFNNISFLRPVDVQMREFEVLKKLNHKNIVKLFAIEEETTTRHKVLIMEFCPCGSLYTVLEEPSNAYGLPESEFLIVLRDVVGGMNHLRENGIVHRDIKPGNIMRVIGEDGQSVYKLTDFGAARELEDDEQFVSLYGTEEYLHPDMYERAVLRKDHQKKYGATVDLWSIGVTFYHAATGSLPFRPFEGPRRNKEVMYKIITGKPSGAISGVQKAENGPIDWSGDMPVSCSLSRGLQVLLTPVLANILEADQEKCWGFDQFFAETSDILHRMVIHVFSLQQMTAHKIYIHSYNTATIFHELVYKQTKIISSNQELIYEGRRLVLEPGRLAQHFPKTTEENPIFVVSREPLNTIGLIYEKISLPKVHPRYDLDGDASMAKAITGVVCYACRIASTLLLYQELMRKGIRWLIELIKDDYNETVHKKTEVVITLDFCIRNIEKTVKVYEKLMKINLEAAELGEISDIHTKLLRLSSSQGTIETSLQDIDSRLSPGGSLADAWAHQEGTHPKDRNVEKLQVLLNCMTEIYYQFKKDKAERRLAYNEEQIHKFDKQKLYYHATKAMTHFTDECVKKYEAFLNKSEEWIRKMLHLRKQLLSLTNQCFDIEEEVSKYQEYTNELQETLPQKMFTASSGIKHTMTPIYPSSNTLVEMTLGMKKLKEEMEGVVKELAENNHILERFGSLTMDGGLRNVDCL
The note with it: kinase TBK1, compound 10 uM; for remaining activity at 10 µM: read-out: % Enzyme Activity (relative to DMSO controls).

For test [4], the target named is T4, 382 unique human kinases (Homo sapiens, UniProt P42680).
T4 construct: purchased Reaction Biology (HotSpot contract assay)
T4 sequence (P42680 1-631): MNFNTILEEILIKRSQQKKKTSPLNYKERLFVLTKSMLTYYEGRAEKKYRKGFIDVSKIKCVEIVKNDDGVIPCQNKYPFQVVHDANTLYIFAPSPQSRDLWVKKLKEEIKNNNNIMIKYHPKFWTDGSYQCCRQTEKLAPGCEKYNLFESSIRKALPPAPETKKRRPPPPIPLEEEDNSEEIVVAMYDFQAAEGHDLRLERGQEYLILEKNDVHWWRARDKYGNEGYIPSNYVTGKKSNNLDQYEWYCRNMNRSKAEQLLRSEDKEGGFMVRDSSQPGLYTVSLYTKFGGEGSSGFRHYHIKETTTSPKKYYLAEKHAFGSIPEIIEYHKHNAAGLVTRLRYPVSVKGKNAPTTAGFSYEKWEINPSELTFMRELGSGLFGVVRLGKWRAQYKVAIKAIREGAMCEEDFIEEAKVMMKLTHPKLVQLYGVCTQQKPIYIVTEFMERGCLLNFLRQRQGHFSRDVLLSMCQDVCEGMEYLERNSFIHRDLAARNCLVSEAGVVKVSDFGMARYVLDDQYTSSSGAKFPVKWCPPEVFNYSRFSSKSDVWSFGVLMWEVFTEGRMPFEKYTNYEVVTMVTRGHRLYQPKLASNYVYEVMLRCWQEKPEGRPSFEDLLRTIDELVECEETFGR
To be noted: TEC, 10 uM; for remaining activity at 10 µM: read-out: % Enzyme Activity (relative to DMSO controls).

The target in test [5] is T5, 382 unique human kinases (Homo sapiens, UniProt Q9NY57).
T5 construct: purchased Reaction Biology (HotSpot contract assay)
T5 sequence (Q9NY57 whole entry): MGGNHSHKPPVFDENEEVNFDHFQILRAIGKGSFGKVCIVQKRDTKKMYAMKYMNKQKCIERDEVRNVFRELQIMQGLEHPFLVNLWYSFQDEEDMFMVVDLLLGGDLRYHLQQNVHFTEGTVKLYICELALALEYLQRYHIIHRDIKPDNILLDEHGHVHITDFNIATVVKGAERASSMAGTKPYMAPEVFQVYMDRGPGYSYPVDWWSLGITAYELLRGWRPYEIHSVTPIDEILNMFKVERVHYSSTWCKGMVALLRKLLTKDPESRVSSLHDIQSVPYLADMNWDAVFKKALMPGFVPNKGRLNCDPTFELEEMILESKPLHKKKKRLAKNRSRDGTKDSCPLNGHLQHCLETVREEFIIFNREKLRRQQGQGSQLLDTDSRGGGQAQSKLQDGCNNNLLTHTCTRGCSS
To be noted: kinase STK32B/YANK2, compound 10 uM; for remaining activity at 10 µM: read-out: % Enzyme Activity (relative to DMSO controls).

Test [6] has as its target T6, 382 unique human kinases (Homo sapiens, UniProt P22694).
T6 construct: purchased Reaction Biology (HotSpot contract assay)
To be noted: kinase PKAcb, compound 10 uM; for remaining activity at 10 µM: read-out: % Enzyme Activity (relative to DMSO controls).

The target in test [7] is T7, 382 unique human kinases (Homo sapiens, UniProt P10721, D816Y).
T7 construct: purchased Reaction Biology (HotSpot contract assay)
T7 sequence (P10721 26-976 D816Y): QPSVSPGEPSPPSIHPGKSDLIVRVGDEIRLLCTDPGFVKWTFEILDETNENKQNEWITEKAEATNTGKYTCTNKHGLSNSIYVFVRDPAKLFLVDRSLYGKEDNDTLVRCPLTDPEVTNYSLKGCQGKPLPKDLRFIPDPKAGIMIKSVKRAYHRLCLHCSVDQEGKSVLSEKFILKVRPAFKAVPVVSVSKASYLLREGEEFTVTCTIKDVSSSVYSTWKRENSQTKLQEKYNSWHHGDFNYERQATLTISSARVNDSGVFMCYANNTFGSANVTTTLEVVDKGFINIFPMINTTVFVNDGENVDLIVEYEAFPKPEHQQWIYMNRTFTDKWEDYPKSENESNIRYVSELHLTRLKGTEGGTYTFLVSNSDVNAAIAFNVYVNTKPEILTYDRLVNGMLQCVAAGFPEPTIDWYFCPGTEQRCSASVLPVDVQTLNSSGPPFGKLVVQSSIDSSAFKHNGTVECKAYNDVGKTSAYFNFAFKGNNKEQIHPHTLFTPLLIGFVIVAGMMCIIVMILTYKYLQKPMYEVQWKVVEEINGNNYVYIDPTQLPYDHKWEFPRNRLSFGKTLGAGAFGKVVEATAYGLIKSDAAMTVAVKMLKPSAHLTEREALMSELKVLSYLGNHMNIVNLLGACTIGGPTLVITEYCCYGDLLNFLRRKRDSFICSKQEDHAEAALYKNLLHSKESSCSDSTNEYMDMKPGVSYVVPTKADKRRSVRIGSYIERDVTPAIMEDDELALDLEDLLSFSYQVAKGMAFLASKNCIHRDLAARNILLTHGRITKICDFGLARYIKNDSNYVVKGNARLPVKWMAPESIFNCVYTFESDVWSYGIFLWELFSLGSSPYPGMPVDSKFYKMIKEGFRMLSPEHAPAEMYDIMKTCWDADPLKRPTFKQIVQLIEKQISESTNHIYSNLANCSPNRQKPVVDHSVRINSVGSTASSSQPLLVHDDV
To be noted: c-Kit (D816Y), [ATP] 10 µM, compound 10 uM; for remaining activity at 10 µM: read-out: % Enzyme Activity (relative to DMSO controls).

The target of test [8] is T8, 382 unique human kinases (Homo sapiens, UniProt P31751, E17K).
T8 construct: purchased Reaction Biology (HotSpot contract assay)
T8 sequence (P31751 whole entry E17K): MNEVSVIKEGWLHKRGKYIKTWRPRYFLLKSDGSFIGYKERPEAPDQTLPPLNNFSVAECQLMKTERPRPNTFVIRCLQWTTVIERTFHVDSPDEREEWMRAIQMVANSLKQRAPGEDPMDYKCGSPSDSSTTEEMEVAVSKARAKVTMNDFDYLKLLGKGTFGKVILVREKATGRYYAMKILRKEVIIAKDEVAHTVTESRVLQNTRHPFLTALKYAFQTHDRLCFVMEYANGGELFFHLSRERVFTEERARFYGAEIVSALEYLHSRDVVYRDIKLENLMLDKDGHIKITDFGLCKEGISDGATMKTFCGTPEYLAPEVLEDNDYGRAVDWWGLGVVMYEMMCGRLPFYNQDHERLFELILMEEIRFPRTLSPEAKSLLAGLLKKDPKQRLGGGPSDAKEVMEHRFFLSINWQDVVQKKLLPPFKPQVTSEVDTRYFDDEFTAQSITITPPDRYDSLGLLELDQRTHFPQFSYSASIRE
The note with it: AKT2 (E17K), 10 uM; for remaining activity at 10 µM: read-out: % Enzyme Activity (relative to DMSO controls).

The target of test [9] is T9, 382 unique human kinases (Homo sapiens, UniProt Q6VAB6, R676S).
T9 construct: purchased Reaction Biology (HotSpot contract assay)
T9 sequence (Q6VAB6 1-950 R676S): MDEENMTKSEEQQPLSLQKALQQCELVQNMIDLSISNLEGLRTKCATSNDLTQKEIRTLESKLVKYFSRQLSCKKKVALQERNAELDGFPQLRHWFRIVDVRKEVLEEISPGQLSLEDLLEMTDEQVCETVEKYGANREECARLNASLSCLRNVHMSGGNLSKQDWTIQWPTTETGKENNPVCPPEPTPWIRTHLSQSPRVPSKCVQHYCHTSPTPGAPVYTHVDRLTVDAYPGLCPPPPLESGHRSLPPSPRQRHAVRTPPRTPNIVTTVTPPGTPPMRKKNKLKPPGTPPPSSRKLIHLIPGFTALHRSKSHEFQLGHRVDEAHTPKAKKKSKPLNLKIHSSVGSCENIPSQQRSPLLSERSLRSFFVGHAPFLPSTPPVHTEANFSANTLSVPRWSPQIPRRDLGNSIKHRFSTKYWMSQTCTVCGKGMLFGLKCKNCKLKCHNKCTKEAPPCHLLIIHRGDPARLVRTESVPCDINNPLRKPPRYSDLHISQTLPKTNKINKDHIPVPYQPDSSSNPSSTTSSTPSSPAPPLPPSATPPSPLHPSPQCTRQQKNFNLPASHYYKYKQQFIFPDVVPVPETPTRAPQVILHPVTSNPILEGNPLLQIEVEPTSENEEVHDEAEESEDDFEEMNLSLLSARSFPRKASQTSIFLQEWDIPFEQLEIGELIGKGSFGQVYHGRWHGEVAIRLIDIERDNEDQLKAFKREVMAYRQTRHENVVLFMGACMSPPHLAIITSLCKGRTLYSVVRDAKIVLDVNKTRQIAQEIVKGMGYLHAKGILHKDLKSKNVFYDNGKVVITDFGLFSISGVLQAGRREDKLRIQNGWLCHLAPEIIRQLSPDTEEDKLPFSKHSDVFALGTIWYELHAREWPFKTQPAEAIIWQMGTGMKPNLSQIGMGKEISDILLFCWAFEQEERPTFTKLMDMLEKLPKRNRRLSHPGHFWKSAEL
To be noted: KSR2 (R676S), 10 uM; for remaining activity at 10 µM: read-out: % Enzyme Activity (relative to DMSO controls).

Each structure is given as a SMILES string.

T1 sequence (P22607 23-806 K650Q): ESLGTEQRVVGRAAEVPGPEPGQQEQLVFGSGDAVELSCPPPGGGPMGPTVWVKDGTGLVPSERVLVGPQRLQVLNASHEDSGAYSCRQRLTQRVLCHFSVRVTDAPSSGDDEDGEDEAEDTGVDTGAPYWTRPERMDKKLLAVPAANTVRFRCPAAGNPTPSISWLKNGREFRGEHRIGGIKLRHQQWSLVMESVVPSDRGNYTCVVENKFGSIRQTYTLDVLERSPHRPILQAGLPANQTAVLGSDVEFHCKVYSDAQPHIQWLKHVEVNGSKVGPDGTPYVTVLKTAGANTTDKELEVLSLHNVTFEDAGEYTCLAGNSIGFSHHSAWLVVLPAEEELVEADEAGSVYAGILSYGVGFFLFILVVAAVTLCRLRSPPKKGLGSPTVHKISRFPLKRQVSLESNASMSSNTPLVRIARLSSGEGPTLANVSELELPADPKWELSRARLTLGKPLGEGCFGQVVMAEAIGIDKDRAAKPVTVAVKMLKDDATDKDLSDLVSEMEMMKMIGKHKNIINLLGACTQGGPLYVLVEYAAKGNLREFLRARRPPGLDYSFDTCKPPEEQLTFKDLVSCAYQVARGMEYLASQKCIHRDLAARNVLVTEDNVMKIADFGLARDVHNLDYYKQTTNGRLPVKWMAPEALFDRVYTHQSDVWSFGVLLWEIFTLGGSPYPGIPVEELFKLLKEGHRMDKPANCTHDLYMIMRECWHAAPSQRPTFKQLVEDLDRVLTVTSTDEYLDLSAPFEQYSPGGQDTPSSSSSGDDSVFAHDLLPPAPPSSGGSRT

With `CC(C)c1cc(-c2n[nH]c(=O)n2-c2ccc3c(ccn3C)c2)c(O)cc1O` [Ganetespib (STA9090)], the remaining activity at 10 µM on 382 unique human kinases [1] was determined as 84.5%; at 382 unique human kinases [2], 86.5%; on 382 unique human kinases [3], 89.4%; on 382 unique human kinases [4], 59.7%; at 382 unique human kinases [5], 107%; on 382 unique human kinases [6], 96.3%.
On to `CC(C)c1cc(-c2n[nH]c(=O)n2-c2ccc3c(ccn3C)c2)c(O)cc1O` [Ganetespib], for which the values for the remaining activity at 10 µM at 382 unique human kinases [7], at 382 unique human kinases [8] and at 382 unique human kinases [9] were 32.1%, 108% and 93%, respectively.
Consider `CCNC(=O)c1noc(-c2cc(C(C)C)c(O)cc2O)c1-c1ccc(CN2CCOCC2)cc1` [Luminespib (AUY-922)], for which the “% Enzyme Activity (relative to DMSO controls)” value at 382 unique human kinases [1] is reported as 105.48%; on 382 unique human kinases [2], 122.22%; at 382 unique human kinases [3] it was 105.06%; on 382 unique human kinases [4], 96.94%; on 382 unique human kinases [5], 88.50%; at 382 unique human kinases [6], 100.86%. The remaining activity at 10 µM at 382 unique human kinases [1] is 107%; at 382 unique human kinases [2] it was 122%; on 382 unique human kinases [3], 107%; on 382 unique human kinases [4], 97.9%; at 382 unique human kinases [5], 88.8%; at 382 unique human kinases [6], 103%.
As to `CCNC(=O)c1noc(-c2cc(C(C)C)c(O)cc2O)c1-c1ccc(CN2CCOCC2)cc1` [Luminespib], the “% Enzyme Activity (relative to DMSO controls)” value is recorded as 53.55% at 382 unique human kinases [7], 96.63% on 382 unique human kinases [8] and 96.29% at 382 unique human kinases [9]. For the same compound, the remaining activity at 10 µM at 382 unique human kinases [7] turned out to be 57.9%; on 382 unique human kinases [8], 98%; on 382 unique human kinases [9], 96.8%.
